Columns and labels:
[1] = tested on: transfected Neuro2a cells; assay: 125I-Aβ degradation and tracer uptake in culture media during treatments; format: cell-based, mouse; conditions: 1 mM 1,10-phenanthroline
Text: Leptin was almost as efficient as methyl-β-cyclodextrin in lowering Aβ (FIG. 4a, 4b).

SY5Y cells = assay: 125I-Aβ uptake by SY5Y cells (apoE-dependent); format: cell-based, human
Experimental: Preparation of ApoE and binding with ^125I-Aβ. ApoE was isolated from the conditioned media of human embryonic kidney (HEK-293) cells stably-transfected with human apoE (having the ε3 allele or the ε4 allele) cDNA (Tezapsidis et al., FASEB J. 17:1322-1324 (2003)). These preparations, while usually poor in lipid, are fully functional for uptake experiments. ApoE then was pre-incubated with ^125I-Aβ overnight at 37° C. (Aβ/ApoE: 1/50 w/w) as described (Tezapsidis et al., FASEB J. 17:1322-1324 (2003)).
Aβ-uptake by SY5Y cells. Human ^125I-Aβ (iodinated at Tyr-10, Amersham Biosciences, IM 294) uptake was measured following addition of 0.1 nM ^125I-Aβ40 (SEQ ID NO: 4) to confluent SY5Y cells (60,000 cpm/ml) in the presence or absence of 100 ng/ml or 400 ng/ml leptin also included in a 24 h pre-incubation period. ^125I-Aβ was either added alone or was previously incubated with apoε3. In controls, Receptor Associated Protein (“RAP”, 1 μM) was added together with Aβ or the Aβ/apoE complex. RAP is an antagonist of a number of lipoprotein receptors (LaDu et al., Neurochem Int. 39:427-34 (2001)). After 24 h, the media were collected and subjected to scintillation counting for γ-Iradiation (Kang et al., 2000. J Clin Invest. 106:1159-66 (2000)). The amount of radioactivity was measured in both the trichloroacetic acid (10%) TCA pellets (representing intact Aβ) and the corresponding supernatants (representing degraded Aβ). 96.5±8.2% (mean±s.e.m., n=4 experiments, triplicate determinations) of the radioactivity found in the medium could be recovered in the TCA pellet and represented intact or oligomeric Aβ (not shown), when Aβ was pre-incubated with apoE.
The amount of TCA-precipitable radioactivity in the soluble fraction of cell lysates was compared to that in the total lysates, the ratio of which was typically about 0.8 to about 0.9 (not shown), to further verify that radioactivity was reduced in the media as a reflection of Aβ uptake by the cells, rather than due to non-specific binding to the extracellular surface of membranes or oligomerization/aggregation of Aβ.
In panel (a), Aβ uptake was measured in SY5Y cells following their treatment at 0 ng/ml, 100 ng/ml or 400 ng/ml leptin. Uptake also was measured in cells previously transfected with antisense DNA for PS1 as described (Tezapsidis et al., FASEB J. 17:1322-1324(2003)) (black). Uptake is expressed as the percentage of that observed with Aβ pre-incubated with apoε3 (medium gray) in the absence of leptin (first set of columns). […] Leptin induced a dose-dependent increase in Aβ uptake with a preference for apoε3 (medium gray) over apoε4 (light gray). In panel (b), SY5Y cells were pre-treated with […] cholesterol (+Chol) or normal medium (−Chol). Then Aβ uptake was measured following its preincubation with apoε3 (ε3) or apoε4 (ε4) in the absence (black) or the presence (gray) of about 400 ng/ml leptin. Cells were more resistant to taking-up Aβ when loaded with cholesterol. […] In panel (c), SY5Y cells were transiently transfected with SREBP-1 or SREBP-2 cDNA or an empty vector (Control). Then Aβ was measured in the medium by ELISAs (Figueiredo-Pereira et al., J Neurochem. 72:1417-22 (1999)) following treatment with (+) or without (−) leptin. […] In panel (d), Aβ uptake was measured in SY5Y cells prepared as in panel (c). Uptake was performed using Aβ/apoε3 complexes.

β-secretase = assay: C99/C83 accumulation in SY5Y cells in presence of γ-secretase inhibitors (Western blot); format: cell-based, human; conditions: 5 h, with L-685,458 (100 nM) or Z-VL-CHO (100 μM); 10 μM cholesterol or 400 ng/ml leptin alone
neurons = assay: Leptin immunostaining of neurons treated with cholesterol; format: cell-based, rat; conditions: neurons, 0, 5 or 10 μM cholesterol, 5 h
Experimental: (§1) Leptin was detected using a rabbit polyclonal antibody raised against mouse leptin, corss-reacting with human leptin (obtained from Dr. A. F. Parlow, Harbor-UCLA, CA). Immunofluorescent confocal microscopy was performed on 2% paraformaldehyde-fixed primary neural cells. Filipin staining was performed as described (Feng et al., Nat Cell Biol. 5:781-92 (2003)).
(§2) Neural cultures from ε15 rat cerebral cortex were processed for enrichment of neurons (a-d) or astrocytes (e-h) as described (Takeshima et al., J. Neurosci. Methods 67: 27-41 (1996)). After about 7 days to about 10 days in culture, cultures were treated for about 5 h with about 10 μg/ml cholesterol (b, f) or about 400 ng/ml leptin plus cholesterol (c, g) or leptin alone (d, h). Controls (a, e) were treated with culture media alone. Filipin staining was performed as described (Feng et al., Nat. Cell Biol. 5: 781-92 (2003)). Neurons (i-k) and astrocytes (l-n) prepared as above were treated with 0 μM (i, l), 5 μM (j, m) or 10 μM cholesterol (k, n) for 5 h. Immunostaining was performed for leptin (A.F.Parlow, Harbor-UCLA, CA).

astrocytes = assay: Leptin immunostaining of astrocytes treated with cholesterol; format: cell-based, rat; conditions: astrocytes, 0, 5 or 10 μM cholesterol, 5 h
Experimental: as §1, §2

[2] = tested on: Neuro2a cells stably transfected with hyg-sa134 (SEAP-APP); assay: Aβ production by Neuro2a cells stably transfected with hyg-sa134 (total Aβ in media, sandwich ELISA); format: cell-based, mouse; conditions: 5 h; about 400 ng/ml leptin alone or 10 μM water-soluble cholesterol alone; FIG. 4b

Structure (SMILES) | tracer's uptake by the cells [1] | Aβ degradation during the uptake (SY5Y cells; absence of apoE) | C99 level (β-secretase) | apoε3-Aβ taken up compared to controls (SY5Y cells; SY5Y cells preloaded with cholesterol/CDX, without leptin, FIG. 5b) | levels of leptin-like immunoreactivity (neurons) | levels of leptin-like immunoreactivity (astrocytes) | levels of Aβ detected in the media (percentage of corresponding controls) [2]
c1cnc2c(c1)ccc1cccnc12 [1,10-phenanthroline] | did not cause any significant difference | abolished Aβ degradation | – | – | – | – | –
CC(C)CCC[C@@H](C)[C@H]1CC[C@H]2[C@@H]3CC=C4C[C@@H](O)CC[C@]4(C)[C@H]3CC[C@]12C [cholesterol] | – | – | increase in C99 | 22±6% | enhanced | enhanced | 205±6%

— patent US8227408B2, “Leptin as an anti-amyloidogenic biologic and methods for delaying the onset and reducing Alzheimer's disease-like pathology” (Neurotez, Inc., priority 2005, dated 2012)
